Where two headings read alike, the source gives them in different places.
What was measured:
[1] = tested on: human bronchial epithelial cell (HBE); assay: Short circuit current (Isc) of cultured human bronchial epithelial cells in Ussing chambers; assay type: cell-based; settings: for Sodium current: 70 nM
Procedure: Tertiary HBE cell monolayers grown to confluence were mounted in modified Ussing chambers, immersed in Krebs buffer (KBR) solution and bubbled with 95% 02/5% C02 warmed to 37 C.
Cells were left to equilibrate for 20 minutes before calibrating for background noise and fluid resistance. Transepithelial potential difference was then clamped to 0 mV using a WPI EVC 4000 voltage clamp. Ag/AgCl electrodes were used to monitor Isc. […] Once a response to amiloride was seen, it was washed out with KBR solution. […] 90 minutes following agent treatment, amiloride (10 uM) was added. Once the current was stable forskolin (10 uM in PBS) and then bumetanide (100 uM in PBS) was added.
Cells were left to equilibrate for 20 minutes before calibrating for background noise and fluid resistance. Transepithelial potential difference was then clamped to 0 mV using a WPI EVC 4000 voltage clamp. Ag/AgCl electrodes were used to monitor Isc. […] Once a response to amiloride was seen, it was washed out with KBR solution. […] 90 minutes following agent treatment, amiloride (10 uM) was added.

[2] = tested on: allergic sheep; settings: cited from earlier work
[3] = Isoelectric point by isoelectric focusing; assay type: physicochemical; settings: Ampholine PAGplate pH 3.5 to 9.5, refolded purified protein
Procedure: After staining, the migration distance from the cathodic edge of the gel to the different protein bands was measured. The pI of each unknown was determined by using a standard curve generated by a plot of the migration distance of standards versus the corresponding pI's. […] (Tenstad et al., 1994, Acta Physiol. Scand. 152:33-50).

[4] = biological target: T1, human plasma kallikrein (Homo sapiens, UniProt P03952); assay: Inhibition of human plasma kallikrein, Ki; assay type: biochemical; settings: for Potency as inhibitor of plasma kallikrein compared with aprotinin (Trasylol), in words: in vitro
T1 construct: purchased Sigma (St. Louis, Mo.)
T1 sequence (P03952 391-638 limits assumed): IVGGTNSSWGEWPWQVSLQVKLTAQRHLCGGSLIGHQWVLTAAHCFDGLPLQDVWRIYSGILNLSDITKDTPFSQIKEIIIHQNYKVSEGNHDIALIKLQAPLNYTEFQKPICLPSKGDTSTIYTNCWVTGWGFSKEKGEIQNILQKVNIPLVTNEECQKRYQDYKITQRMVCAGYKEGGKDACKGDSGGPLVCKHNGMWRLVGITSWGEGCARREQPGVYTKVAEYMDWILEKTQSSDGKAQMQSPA
T1 sequence (P03952 20-390 partner limits assumed): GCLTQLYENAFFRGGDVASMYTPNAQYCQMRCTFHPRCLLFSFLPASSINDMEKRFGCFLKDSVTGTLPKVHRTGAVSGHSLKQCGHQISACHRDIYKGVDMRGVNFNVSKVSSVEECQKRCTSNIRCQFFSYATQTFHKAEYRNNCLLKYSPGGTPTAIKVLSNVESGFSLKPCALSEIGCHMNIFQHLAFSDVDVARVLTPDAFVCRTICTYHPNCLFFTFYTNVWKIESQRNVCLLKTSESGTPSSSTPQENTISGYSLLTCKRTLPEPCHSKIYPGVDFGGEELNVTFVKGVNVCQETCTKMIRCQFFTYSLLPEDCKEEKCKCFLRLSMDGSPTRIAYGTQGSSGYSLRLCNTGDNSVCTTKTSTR
Procedure: Proteases. Bovine trypsin, human plasmin, and bovine pancreatic kallikrein quantitation was carried out by active site titration using p-nitrophenyl p′-guanidinobenzoate HCl as previousl) described (Chase, T., and Shaw, E., (1970) Methods Enzmol. 19, 20-27). […] Human tissue kallikrein (Bayer, Germany) quantification was carried out by active site titration using p′nitrophenyl p′-guanidinobenzoate HCl as previously described (Chase, T., and Shaw, E., (1970) Methods Enzmol. 19, 20-27).
After 5 min. at 37° C., 15 μl of 2 mM GPK-AMC was added and the change in fluorescence (as above) was monitored. […] After 5 min. incubation at 37° C., 25 μl of 20 mM GPK-AMC was added and the change in fluorescence monitored. […] After 5 min. at 37° C. 15 μl of 20 mM PFR-AMC was added and the change in fluorescence monitored.

[5] = tested on: Xenopus kidney epithelial cells (A6 cells); settings: exposure of the apical membrane, Vallet et al 1997, Chraibi et al 1998, cited from earlier work
[6] = tested on: guinea pig trachea; assay: Tracheal mucus velocity (TMV) in the guinea-pig; assay type: in vivo; settings: 10 mM x 20 mins aerosol, 15 minutes after aerosol
Procedure: […] […] The procedure used in this Example is described in Newton et al. in “Cila, Mucus and Mucociliary Interactions,” Ed., Baum, G. L. et al., Marcel Dekker, New York, 1998; Newton et al., Ped. Pulm. S17, Abs. 364, 998).
A Bikunin formulation (50 ug/mL Bikunin (SEQ ID NO: 52) was prepared in HBBS containing 137 mM NaCl, 3 mM KC1, 3 mM KH2PO4, 8 mM Na2HPO4, 0.2% Tween-80, pH 7.1). The formulation was sterile filtered and endotoxin tested prior to use in this example. HBSS was used as a control solution. Hypnorm® (Fentanyl citrate 0.315 mg/mL and Fluanisone 10 mg/mL) was obtained from Janssen Animal Health and Hypnovel® (Midazolam 5 mg/mL) was obtained from Roche. Male Dunkin-Hartley guinea pigs (550-750 g) were supplied by David Hall, UK. Thermistor probes were obtained from Kane-May Ltd, UK. […]
TMV was monitored using a lead collimated miniature Beta particle detector probe arranged to detect the radioactivity emitted from an injected aliquot of ^32P-labelled Saccharomyces cerevisiae as it was transported on the tracheal mucociliary layer of an anaesthetized guinea pig (Newton and Hall 1998) FIG. 16(a) illustrates the arrangement of the syringe and beta probe. FIG. 16(b) illustrates the counts detected by the probe as the ^32P-labelled S.cerevisiae is transported along the tracheal mucociliary layer. […]
[…] TMV was monitored immediately and every 15 minutes for 30 minutes. […]

[7] = tested on: diseased patients; settings: inhalation; Robinson et al 1997, App et al 1990; cited from earlier work
[8] = tested on: human bronchial epithelial cell (HBE); settings: 1.5 μg.ml−1 (70 nM), normal HBE cells; McAulay et al 1998; cited from earlier work

Q: Which “Sodium short circuit current” value ([1]; 0.5 to 5 ug/mL, 90 minute period) does the source give for “Des Pro2-Ser10-Arg15-Asp24-Thr26-Glu31-Asn41-Glu53-Aprotinin [Aprotinin double mutein]” here?
A: Its value is “dose dependently inhibited”.

Q: And the “Sodium short circuit current” value ([1]; 0.5 to 5 ug/mL, 90 minute period, listed as aprotinin double mutein)?
A: Its value is “decrease”.

Q: With “α1-PI: serpin-family serine protease inhibitor alpha(1)-protease inhibitor” as the molecule, how does the “Effect on Na+ Isc” value ([1]; 50 μg.ml−1, normal HBE cells, further study) read?
A: The value was “without a significant effect”.

Q: What about the “Antigen-induced reduction in TMV” value ([2]; 10 mg, 30 min before or 1 h after antigen challenge, 6 h after challenge) of the same molecule?
A: The value was “attenuated”.

Q: And the “Baseline TMV” value ([2]; administered on its own (no antigen challenge), over a 6 h period)?
A: Its value is “no effect”.

Q: And the “Antigen-induced fall in TMV” value ([2]; given 6 h after antigen challenge, at 24 h after challenge)?
A: Its value is “significant reversal”.

Q: Which pI [3] does the source give for `CC[C@H](C)[C@@H]1NC(=O)[C@H](Cc2ccccc2)NC(=O)[C@H](CC(N)=O)NC(=O)[C@H](CC(N)=O)NC(=O)[C@@H]2CSSC[C@@H]3NC(=O)[C@H](C)NC(=O)[C@H](CCC(=O)O)NC(=O)[C@H](CCC(=O)O)NC(=O)[C@H](CO)NC(=O)[C@H](CCCNC(=N)N)NC(=O)[C@H](Cc4ccc(O)cc4)NC(=O)[C@H](CO)NC(=O)[C@H](CC(N)=O)NC(=O)[C@H](CCCCN)NC(=O)[C@H](CC(N)=O)NC(=O)CNC(=O)[C@H](CCCNC(=N)N)NC(=O)[C@H](CSSC[C@H](NC(=O)[C@@H]4CCCN4C(=O)CNC(=O)[C@H]([C@@H](C)O)NC(=O)[C@H](C(C)C)NC(=O)[C@H](C)NC(=O)[C@H](CC(N)=O)NC(=O)[C@H](C)NC(=O)[C@H]([C@@H](C)O)NC(=O)[C@@H](NC(=O)[C@H](Cc4ccc(O)cc4)NC(=O)[C@H](CCC(=O)O)NC(=O)[C@H](CCC(=O)O)NC(=O)[C@@H](N)Cc4ccc(O)cc4)CSSC[C@@H](C(=O)N[C@@H](Cc4ccccc4)C(=O)N[C@@H](CCCNC(=N)N)C(=O)N[C@@H](CCC(N)=O)C(=O)O)NC(=O)[C@H](CCCNC(=N)N)NC(=O)[C@H](CC(C)C)NC(=O)[C@H](CCSC)NC3=O)C(=O)N[C@@H](CCCNC(=N)N)C(=O)N[C@@H](C)C(=O)N[C@@H](CO)C(=O)N[C@@H](Cc3ccccc3)C(=O)N3CCC[C@H]3C(=O)N[C@@H](CCCNC(=N)N)C(=O)N[C@@H](Cc3c[nH]c4ccccc34)C(=O)N[C@@H](Cc3ccc(O)cc3)C(=O)N[C@@H](Cc3ccccc3)C(=O)N[C@@H](CC(=O)O)C(=O)N[C@@H](C(C)C)C(=O)N[C@@H](CCC(=O)O)C(=O)N[C@@H](CCCNC(=N)N)C(=O)N[C@@H](CC(N)=O)C(=O)N[C@@H](CO)C(=O)N2)NC(=O)CNC(=O)CNC(=O)[C@H](Cc2ccc(O)cc2)NC1=O` [Bikunin (102-159)] here?
A: The pI was 8.3.

Q: And the Ki ([4]; Kallikrein ([…] nM), Table 4B)?
A: The Ki was 7 nM.

Q: And the “Potency as inhibitor of plasma kallikrein compared with aprotinin (Trasylol), in words” value [4]?
A: Its value is “significantly more potent”.

Q: Which “Sodium short circuit current” value ([1]; 5 ug/mL, FIG. 20) does the source give for Aprotinin here?
A: The value was “decrease”.

Q: And the “Transepithelial Na+ transport” value [5]?
A: The value was “reduce”.

Q: What about the “Transepithelial Na+ transport” value ([5]; listed as aprotinin) of the same molecule?
A: Its value is “reduced”.

Q: What does the source list for `N=C(N)NC(=O)c1nc(Cl)c(N)nc1N` [amiloride]?
A: TMV after aerosol [6]: statistically significant increase; MCC in diseased patients [7]: significantly increase

B1: Bikunin: Bikunin (SEQ ID NO: 52), two Kunitz domain human homologue of bovine aprotinin, used in airway and HBE studies (protein, listed as Homo sapiens)
chain: ADRERSIHDFCLVSKVVGRCRASMPRWWYNVTDGSCQLFVYGGCDGNSNNYLTKEECLKKCATVTENATGDLATSRNAADSSVPSAPRRQDSEDHSSDMFNYEEYCTANAVTGPCRASFPRWYFDVERNSCNNFIYGGCRGNKNSYRSEEACMLRCFRQQENPPLPLGSK
Q: What does the source list for B1?
A: Sodium current ([1]; 90 minute period): decreases; Sodium current ([1]; 90 minute period, listed as Bukinin): inhibited; Inhibition of Na+ Isc ([1]; 5 μg.ml−1, normal HBE cells, further study): 84%; Sodium short circuit current ([1]; 5 ug/mL, FIG. 20): decrease; Inhibition of Na+ Isc [8]: 54%

B2: Recombinant Bikunin: fragment of placental bikunin containing both Kunitz domains (1-170), expressed in baculovirus/Sf9 cells (protein)
chain: ADRERSIHDFCLVSKVVGRCRASMPRWWYNVTDGSCQLFVYGGCDGNSNNYLTKEECLKKCATVTENATGDLATSRNAADSSVPSAPRRQDSEDHSSDMFNYEEYCTANAVTGPCRASFPRWYFDVERNSCNNFIYGGCRGNKNSYRSEEACMLRCFRQQENPPLPLGSK
Q: Which results are given for B2?
A: Potency as inhibitor of plasma kallikrein compared with aprotinin (Trasylol), in words [4]: more potent; Potency as inhibitor of plasma kallikrein compared with aprotinin (Trasylol), in words ([4]; listed as bikunin(1-170)): significantly more potent
